In patent US4167405A, “Fertilizers for supplying plants with iron” (Bayer Aktiengesellschaft, priority 1977, dated 1979):

Columns and labels:
[1] = system: Chrysanthemum indicum (Variety: Yellow Delaware); assay: Combating iron deficiency/leaf uptake test; type: in vivo
Description: Test plant: Chrysanthemum indicum (Variety: Yellow Delaware)
Culture substrate: Mixture of polystyrene foam flock (Styromull) and potassium alginate in the volume ratio of 10:1
To prepare a suitable formulation of the active compound, the particular amount of active compound desired was dissolved in water.
Test plants were grown in a culture substrate of the composition indicated above, fertilization and watering being effected by adding, twice weekly, a mineral-iron-deficient nutrient solution according to Hoagland and Arnon (Circular 347, College of Agriculture, University of California, Berkeley 1950). […] After 2 days the plants were again sprayed with the active compound formulation in the same manner.
The evaluation took place when an average of 2 leaves had newly formed on the plants treated with an optimum amount of a water-soluble, commercially available iron fertilizer, in each case, the average number of newly formed leaves was determined on all test plants. Furthermore, the intensity of the green colour of newly formed leaves was rated and expressed as a numerical code.
In this, the figures denoted:
1=0% chlorotic (dark green)
9=100% chlorotic (corresponding to the untreated control plants)

[2] = Water solubility of the preparation; type: physicochemical
[3] = nutrient preparation in the spray liquor 0.13 %
[4] = nutrient preparation in the spray liquor 0.66 %
[5] = nutrient preparation in the spray liquor 0.62 %
[6] = nutrient preparation in the spray liquor 0.12 %
[7] = nutrient preparation in the spray liquor 0.59 %
[8] = nutrient preparation in the spray liquor 0.03 %
[9] = nutrient preparation in the spray liquor 0.14 %
[10] = nutrient preparation in the spray liquor 0.16 %
[11] = nutrient preparation in the spray liquor 0.78 %
[12] = nutrient preparation in the spray liquor 0.15 %
[13] = nutrient preparation in the spray liquor 0.74 %

Question: For `CCCCCCC(=O)[c-]1cccc1.[Fe+2].c1cc[cH-]c1` [Example 5, n-heptanoylferrocene], which “Average number of newly formed leaves” value [1, 3] is on record?
Answer: Its value is 4.

Question: And the “Intensity of the green colour of young leaves” value (“Intensity” for short) [1, 3]?
Answer: The value was 3 (25% chlorotic).

Question: And the “Average number of newly formed leaves” value [1, 4]?
Answer: Its value is 4.

Question: And the “Intensity” value [1, 4]?
Answer: Its value is 2-3.

Question: And the “Water solubility of the preparation” value [2]?
Answer: The value was “slight”.

Question: Which “Average number of newly formed leaves” value [1, 3] does the source give for `CCCCCC(=O)[c-]1cccc1.[Fe+2].c1cc[cH-]c1` [Example 4, n-hexanoylferrocene] here?
Answer: The value was 3.

Question: And the “Intensity” value [1, 3]?
Answer: Its value is 3 (25% chlorotic).

Question: What about the “Average number of newly formed leaves” value [1, 5] of the same compound?
Answer: Its value is 3.

Question: What about the “Intensity” value [1, 5] of the same compound?
Answer: Its value is 2-3.

Question: What about the “Water solubility of the preparation” value [2] of the same compound?
Answer: Its value is “slight”.

Question: For `CCCCC(=O)[c-]1cccc1.[Fe+2].c1cc[cH-]c1` [Example 3, n-pentanoylferrocene], which “Average number of newly formed leaves” value [1, 6] is on record?
Answer: The value was 4.

Question: And the “Intensity” value [1, 6]?
Answer: Its value is 2-3.

Question: What about the “Average number of newly formed leaves” value [1, 7] of the same compound?
Answer: Its value is 4.

Question: And the “Intensity” value [1, 7]?
Answer: Its value is 2.

Question: What about the “Water solubility of the preparation” value [2] of the same compound?
Answer: The value was “slight”.

Question: With `CCCCCCCC(=O)[c-]1cccc1.[Fe+2].c1cc[cH-]c1` [Example 6, n-octanoylferrocene] as the compound, how does the “Average number of newly formed leaves” value [1, 8] read?
Answer: Its value is 4.

Question: What about the “Intensity” value [1, 8] of the same compound?
Answer: Its value is 3 (25% chlorotic).

Question: And the “Average number of newly formed leaves” value [1, 9]?
Answer: Its value is 5.

Question: What about the “Intensity” value [1, 9] of the same compound?
Answer: The value was 2-3.

Question: And the “Water solubility of the preparation” value [2]?
Answer: The value was “slight”.

Question: Which “Average number of newly formed leaves” value [1, 8] does the source give for `CCCCCCCCCC(=O)[c-]1cccc1.[Fe+2].c1cc[cH-]c1` [Example 2, n-decanoyl-ferrocene] here?
Answer: The value was 4.

Question: And the “Intensity” value [1, 8]?
Answer: The value was 3 (25% chlorotic).

Question: What about the “Average number of newly formed leaves” value [1, 10] of the same compound?
Answer: The value was 5.

Question: What about the “Intensity” value [1, 10] of the same compound?
Answer: The value was 2-3.

Question: What about the “Average number of newly formed leaves” value [1, 11] of the same compound?
Answer: The value was 5.

Question: What about the “Intensity” value [1, 11] of the same compound?
Answer: Its value is 2.

Question: What about the “Water solubility of the preparation” value [2] of the same compound?
Answer: The value was “slight”.

Question: What does the source list for `CCCCCCCCC(=O)[c-]1cccc1.[Fe+2].c1cc[cH-]c1` [Example 7, n-nonaoylferrocene]?
Answer: Average number of newly formed leaves [1, 8]: 4; Intensity of the green colour of young leaves [1, 8]: 3 (25% chlorotic); Average number of newly formed leaves [1, 12]: 5; Intensity of the green colour of young leaves [1, 12]: 2-3; Average number of newly formed leaves [1, 13]: 5; Intensity of the green colour of young leaves [1, 13]: 2; Water solubility of the preparation [2]: slight
